Like-named read-outs stand apart in the source and are kept apart here.

The Ki is a dissociation constant, usually derived from enzyme kinetics or from competition with a known ligand.

This assay concerns the target α1 -Adrenergic receptor. Kind of assay: α1-Adrenergic receptor binding assay ([^3 H] prazosin competition, rat brain cortex membranes). The method, then: Rat brain cortex membranes were prepared for [^3 H] prazosin or [^3 H] clonidine binding by homogenizing tissues in 0.32 M sucrose buffered with 50 mM Tris buffer (pH 7.4) in a tissue/buffer ratio of 1:10. After the removal of nuclei by centrifugation at 1000×g for 10 min, P2 membranes were pelleted by centrifuging the supernatant at 22,000×g for 20 min. After two periods of centrifugation at 22,000×g and resuspension in fresh buffer, the membrane suspension (about 2 mg/ml protein) was ready for use.
α1 -Adrenergic receptor binding assays (in triplicate) were carried out with 0.2 nM [^3 H] prazosin in a final volume of 1.0 ml of Tris buffer at pH 7.4 for 30 min at room temperature, using […] phentolamine to determine non-specific binding. […] The concentrations of synthetic compounds for competition binding were in the range of 0.1-100 μM. After binding had reached equilibrium, incubations were terminated by collecting the membranes on Whatman GF/B filters; the filters were washed twice with 5 ml of 50 mM Tris buffer (pH 7.4) at 4° C.
[^3 H]prazosin (76.6 Ci/mmol) and [^3 H]clonidine (47.0 Ci/mmol) were purchased from NEN. All other chemicals used were reagent grade and were purchased from Sigma (St. Louis, Mo.).

Setting [1] is: preliminary results, read-out: affinity to α1 -adrenoceptor (Ki).
The mark [2] stands for this setting: rat brain cortex membranes, 0.2 nM [^3 H] prazosin, pH 7.4, 30 min, room temperature, read-out: α1 Binding (Ki).

Take `COc1ccccc1N1CCN(C[C@H]2CN=C3c4ccccc4N=C(SC)N32)CC1` [Example 16]: the Ki under setting [1] was 1.88 nM and the Ki under setting [2] was determined as 1.88 nM.

As to `COc1ccccc1N1CCN(C[C@H]2CN=C3c4ccccc4NC(=O)N32)CC1` [Example 18], the inhibition constant (Ki) is, setting by setting: under setting [1], 0.1 nM; under setting [2], 0.1 nM.

In the case of `COc1ccccc1N1CCN(C[C@@H]2CN=C3c4ccccc4N=C(SC)N32)CC1` [Example 17], the Ki by setting is: under setting [1], 554 nM; under setting [2], 554 nM.

Take `COc1ccccc1N1CCN(C[C@@H]2CN=C3c4ccccc4NC(=O)N32)CC1` [Example 19]: under setting [2], the Ki came out at 26 nM.

For `COc1ccccc1N1CCN(CC2CN=C3c4ccccc4N=C(SC)N32)CC1` (racemic) [(RS)-I, reference compound], under setting [1], the inhibition constant Ki was 3.55 nM.

(Values after patent publication US5932584A, “Optically active 2,3-dihydroimidazo(1,2-C) quinazoline derivatives, the preparation and antihypertensive use thereof” (National Science Council, priority 1997, dated 1999).)
